Test results: patent publication US6117661A, “Mutant mono-oxygenase cytochrome P450cam” (BG plc, priority 1995, dated 2000)
Values joined by “and” are separate entries in the source; they are usually repeats but may differ in a detail not shown here. Equal entries are not always repeated. Where two headings read alike, the source gives them in different places.

Assays:
[1] = biological target: T1, P450cam WT (Pseudomonas putida, UniProt P00183); assay: Product distribution following oxidation of substrates (GC); type: biochemical, P. putida; conditions: for Products (%) WT: label = product
T1 construct: reconstituted with putidaredoxin and putidaredoxin reductase
T1 sequence (P00259 whole entry): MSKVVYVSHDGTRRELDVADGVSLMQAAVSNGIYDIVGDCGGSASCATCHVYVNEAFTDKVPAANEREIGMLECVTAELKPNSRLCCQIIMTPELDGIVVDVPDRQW
T1 sequence (P16640 whole entry, further chain): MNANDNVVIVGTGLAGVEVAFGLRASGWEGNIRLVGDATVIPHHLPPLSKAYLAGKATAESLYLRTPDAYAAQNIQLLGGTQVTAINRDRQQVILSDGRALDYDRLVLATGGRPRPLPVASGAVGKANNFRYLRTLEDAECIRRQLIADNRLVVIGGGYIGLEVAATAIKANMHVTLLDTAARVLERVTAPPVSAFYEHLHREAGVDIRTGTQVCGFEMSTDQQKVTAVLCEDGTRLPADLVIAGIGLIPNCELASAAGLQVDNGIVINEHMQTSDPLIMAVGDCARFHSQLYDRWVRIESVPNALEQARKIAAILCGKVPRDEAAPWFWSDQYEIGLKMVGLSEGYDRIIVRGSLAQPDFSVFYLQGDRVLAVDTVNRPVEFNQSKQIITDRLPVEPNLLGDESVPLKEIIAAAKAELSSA
T1 sequence (P00183 whole entry): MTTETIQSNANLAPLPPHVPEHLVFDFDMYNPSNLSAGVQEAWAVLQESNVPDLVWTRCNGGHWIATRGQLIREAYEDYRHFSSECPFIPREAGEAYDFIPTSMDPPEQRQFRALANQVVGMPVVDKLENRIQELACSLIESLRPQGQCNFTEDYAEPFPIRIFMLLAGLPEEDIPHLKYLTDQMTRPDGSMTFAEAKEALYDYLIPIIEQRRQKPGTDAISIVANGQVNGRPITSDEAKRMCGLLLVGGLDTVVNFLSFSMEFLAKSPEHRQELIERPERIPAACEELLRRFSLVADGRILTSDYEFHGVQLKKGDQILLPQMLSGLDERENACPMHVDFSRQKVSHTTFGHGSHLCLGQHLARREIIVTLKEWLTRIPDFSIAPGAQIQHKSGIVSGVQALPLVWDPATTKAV
Method: (§1) A buffered solution (50 mM Tris.HCI, pH 7.4), typically 3 ml in volume, containing 10 uM putidaredoxin, 2 uM putidaredoxin reductase, 1 uM cytochrome P-450cam mono-oxygenase (wild-type or mutant), 200 mM KCI, 50 ug/ml bovine liver catalase (Sigma), and 1 mM target organic compound such as cyclohexylbenzene (added as a 0.1 M stock in ethanol) was preincubated at 30° C. for 5 minutes. The enzymatic reaction was initiated by adding NADH to a total concentration of 2 mM. Further four aliquots of NADH (to increase the NADH concentration by 1 mM each time) were added in intervals of 10 minutes, and 30 minutes into the incubation one aliquot of substrate (to increase the concentration by 1 mM) was also added. The reaction was quenched after 60 minutes by adding 0.5 ml chloroform and vortexing the mixture. The phases were separated by centrifugation (4000 g) at 4° C. The chloroform layer was analyzed by gas chromatography.
(§2) For many substrate compounds such as cyclohexylbenzene for which not all the P-450cam-mediated oxidation products are commercially available, the chloroform extracts are evaporated to dryness under a stream of nitrogen. The residues were extracted with hexane and the oxidation products separated by high performance liquid chromatography, eluting with a hexane/isopropanol gradient. The purified products were then identified by mass spectroscopy and particularly nuclear magnetic resonance spectroscopy.
(§3) The NADH concentration can be monitored at 340 nm and, in all cases, more substrates and NADH are added during the incubation.

[2] = biological target: T2, P450cam active site mutant Y96L (also C334A) (Pseudomonas putida, UniProt P00183, C335A/Y97L); type: biochemical, P. putida; conditions: substrate cyclohexylbenzene; for Products (%) Y96L: label = product
T2 construct: reconstituted with putidaredoxin and putidaredoxin reductase
T2 sequence (P00183 2-415 Y97L/C335A): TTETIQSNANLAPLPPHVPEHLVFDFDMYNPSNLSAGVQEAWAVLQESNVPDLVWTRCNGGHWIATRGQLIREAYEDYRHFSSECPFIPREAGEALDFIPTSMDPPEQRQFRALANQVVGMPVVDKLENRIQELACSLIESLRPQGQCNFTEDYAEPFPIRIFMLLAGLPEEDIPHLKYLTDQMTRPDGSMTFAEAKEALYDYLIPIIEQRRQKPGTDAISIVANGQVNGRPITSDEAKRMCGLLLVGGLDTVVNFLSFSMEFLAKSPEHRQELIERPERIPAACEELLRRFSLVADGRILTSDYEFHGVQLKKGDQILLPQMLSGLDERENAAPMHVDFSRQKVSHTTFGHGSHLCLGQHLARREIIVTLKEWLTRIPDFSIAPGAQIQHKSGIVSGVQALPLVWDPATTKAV
T2 sequence (P16640 whole entry, further chain): as the sequence (P16640 whole entry, further chain) above
T2 sequence (P00259 whole entry, further chain): as the sequence (P00259 whole entry) above
Method: as §1, §2, §3

[3] = biological target: T3, P450cam active site mutant Y96F (also C334A) (Pseudomonas putida, UniProt P00183, C335A/Y97F); type: biochemical, P. putida; conditions: for Products(%) Y96F: label = product
T3 construct: reconstituted with putidaredoxin and putidaredoxin reductase
T3 sequence (P16640 whole entry): as the sequence (P16640 whole entry, further chain) above
T3 sequence (P00183 2-415 Y97F/C335A): as the sequence (P00183 2-415 Y97L/C335A) above, with L96F counted along it
T3 sequence (P00259 whole entry, further chain): as the sequence (P00259 whole entry) above
Method: as §1, §2, §3

[4] = biological target: T4, P450cam active site mutant Y96V (also C334A) (Pseudomonas putida, UniProt P00183, C335A/Y97V); type: biochemical, P. putida; conditions: substrate cyclohexylbenzene; for Products (%) Y96V: label = product
T4 construct: reconstituted with putidaredoxin and putidaredoxin reductase
T4 sequence (P00183 2-415 Y97V/C335A): as the sequence (P00183 2-415 Y97L/C335A) above, with L96V counted along it
T4 sequence (P00259 whole entry, further chain): as the sequence (P00259 whole entry) above
T4 sequence (P16640 whole entry, further chain): as the sequence (P16640 whole entry, further chain) above
Method: as §1, §2, §3

[5] = biological target: T5, P450cam active site mutant Y96A (also C334A) (Pseudomonas putida, UniProt P00183, C335A/Y97A); type: biochemical, P. putida; conditions: for Products(%) Y96A: label = product
T5 construct: reconstituted with putidaredoxin and putidaredoxin reductase
T5 sequence (P00183 2-415 Y97A/C335A): as the sequence (P00183 2-415 Y97L/C335A) above, with L96A counted along it
T5 sequence (P00259 whole entry, further chain): as the sequence (P00259 whole entry) above
T5 sequence (P16640 whole entry, further chain): as the sequence (P16640 whole entry, further chain) above
Method: as §1, §2, §3

[6] = biological target: T6, Wild type P450cam (Pseudomonas putida, UniProt P00183); assay: Turnover rate measured as NADH consumption rate; type: biochemical, P. putida; conditions: small alkanes; background about 0.07
T6 sequence (P00183 whole entry): as the sequence (P00183 whole entry) above
T6 sequence (P00259 whole entry, further chain): as the sequence (P00259 whole entry) above
T6 sequence (P16640 whole entry, further chain): as the sequence (P16640 whole entry, further chain) above
Method: as §1, §3
(§4) Turnover rate measured as NADH consumption rate
(§5) (nmole NADH/nmole P450cam/s).

[7] = biological target: T7, P450cam Y96A (also contains the C334A mutation) (Pseudomonas putida, UniProt P00183, C335A/Y97A); type: biochemical, P. putida; conditions: small alkanes
T7 construct: reconstituted with putidaredoxin and putidaredoxin reductase
T7 sequence (P00183 2-415 Y97A/C335A): as the sequence (P00183 2-415 Y97L/C335A) above, with L96A counted along it
T7 sequence (P16640 whole entry, further chain): as the sequence (P16640 whole entry, further chain) above
T7 sequence (P00259 whole entry, further chain): as the sequence (P00259 whole entry) above
Method: as §1, §3, §4, §5

[8] = biological target: T6, Wild type P450cam; type: binding, P. putida
[9] = biological target: P450cam Mutant Y96A (Pseudomonas putida, UniProt P00183, C335A/Y97A); type: binding, P. putida
Sequence of P450cam Mutant Y96A (P00183 2-415 Y97A/C335A): as the sequence (P00183 2-415 Y97L/C335A) above, with L96A counted along it
Sequence of P450cam Mutant Y96A (P16640 whole entry, further chain): as the sequence (P16640 whole entry, further chain) above
Sequence of P450cam Mutant Y96A (P00259 whole entry, further chain): as the sequence (P00259 whole entry) above

[10] = -- = no shift, nd = not determined

OC1CCCC(c2ccccc2)C1 (single isomer, unassigned) [3-ol]
Products (%) WT ([1]; substrate cyclohexylbenzene): 43%
Products (%) Y96L [2]: 38%
Products(%) Y96F ([3]; substrate cyclohexylbenzene): 54%
Products (%) Y96V [4]: 28%
Products(%) Y96A ([5]; substrate cyclohexylbenzene): 20%

CCCCC(C)C [2-methyl hexane]
Turnover rate (NADH consumption rate) Wild type [6]: background
Turnover rate (NADH consumption rate) Y96A [7]: 10.6 nmole NADH/nmole P450cam/s
Relative activity (WT = 1) Y96F ([3]; substrate 2-methyl hexane): 2.3
Relative activity (WT = 1) Y96A ([5]; substrate 2-methyl hexane): 2.6

OC1C=C(c2ccccc2)CCC1 (stereo not shown) [3-ol (B)]
Products (%) WT ([1]; substrate phenylcyclohexene): 76%
Products(%) Y96A ([5]; substrate phenylcyclohexene): 75%

O=C1C=C(c2ccccc2)CCC1 [3-one (A)]
Products (%) WT ([1]; substrate phenylcyclohexene): 24%
Products(%) Y96A ([5]; substrate phenylcyclohexene): 25%

O[C@H]1CC[C@@H](c2ccccc2)CC1 [Cis-4-ol]
Products (%) WT ([1]; substrate cyclohexylbenzene): 12%
Products (%) Y96L [2]: 16%
Products(%) Y96F ([3]; substrate cyclohexylbenzene): 13%
Products (%) Y96V [4]: 23%
Products(%) Y96A ([5]; substrate cyclohexylbenzene): 45%

c1ccc(C2CCCCC2)cc1 [Cyclohexylbenzene]
Total products WT ([1]; substrate cyclohexylbenzene): 0.8 area/10^5
Total products Y96L [2]: 10.4 area/10^5
Total products Y96F ([3]; substrate cyclohexylbenzene): 1.1 area/10^5
Total products Y96V [4]: 12.5 area/10^5
Total products Y96A ([5]; substrate cyclohexylbenzene): 7.4 area/10^5
Wild type Vs DTT [8]: 20
Wild type ΔSpin high/low [8, 10]: 20
Mutant Y96A ΔSpin high/low [9, 10]: 80

CCCCCC [Hexane]
Turnover rate (NADH consumption rate) Wild type [6]: background
Turnover rate (NADH consumption rate) Y96A [7]: 6.0 nmole NADH/nmole P450cam/s
Relative activity (WT = 1) Y96F ([3]; substrate hexane): 18.2
Relative activity (WT = 1) Y96A ([5]; substrate hexane): 25.5
Mutant Y96A Vs DTT [9]: 60 and 40
Mutant Y96A ΔSpin high/low [9]: 70 and 60

OC1CCCC(c2ccccc2)C1 (stereo not shown) [L or D 3-ol]
Products (%) WT ([1]; substrate cyclohexylbenzene): 20%
Products (%) Y96L [2]: 23%
Products(%) Y96F ([3]; substrate cyclohexylbenzene): 27%
Products (%) Y96V [4]: 39%
Products(%) Y96A ([5]; substrate cyclohexylbenzene): 20%
